# Measurements as given in patent publication US11911483B2, “Modified self-immolating moieties for use in prodrugs and conjugates and methods of using and making” (BRISTOL-MYERS SQUIBB COMPANY, priority 2018, dated 2024).
# Columns and labels:
# [1] = Blood serum stability in human serum; format: in vitro ADME; conditions: 37° C.
# Procedure: (§1) The samples were incubated at 37° C. for 0, 1, 2, 4, and 24 hours. After each of the time points, an aliquot of 20 μl was taken from the samples and quenched with 60 μl of 75:25:0.1 MeOH:acetonitrile:formic acid. After quenching, all samples were held at −20° C. for 1 hour and further centrifuged at 14000 rpm for 15 mins. The supernatant was transferred to a fresh vial and stored at −20° C. until analysis. Samples were analyzed using LC-MS/MS on Agilent 6530 Q-TOF mass spectrometer connected to an Agilent 1290 UPLC. 3 μL of samples were injected onto a Waters BEH C18 Column (2.1×50 mm, 1.7 μm) maintained at 60° C. […] The total run time is 9.5 min.
# [2] = Blood serum stability in mouse serum; format: in vitro ADME
# Procedure: as §1
# Cathepsin B = Cathepsin B (Homo sapiens, UniProt P07858); assay: Cathepsin B cleavage of linkers; format: biochemical; conditions: Cathepsin B buffer pH 5.5, 37° C.
# Procedure: The following procedure was used for testing the cathepsin B cleavage of linkers.
# 7.5 μL of test compound (0.5 mM in DMSO) was transferred to individual tube containing 135 μl of Cathepsin B buffer (25 mM Sodium Acetate, 1 mM EDTA, 1 mM DTT, pH 5.5) and the digestion was started by the addition of 7.5 μl of the diluted Cathepsin B enzyme (Activated, 1.45 μM, 0.1 units). The samples were incubated at 37° C. for 24 h. After 24 h, a 20 μL aliquot was taken and quenched with 80 μL of 75:25:0.1 MeOH:acetonitrile:formic acid. Negative control was also included, without the addition of Cathepsin B. A control compound (structure below) was digested similarly and included as positive control. After quenching, all samples were held at −20° C. for 1 h and further centrifuged at 14,000 rpm for 5 min. The supernatant was transferred to a fresh tube and put in an UPLC autosampler for analysis, per the procedure of the preceding example.
# In the above structure, “Tub” denotes a tubulysin analog (Cheng et al., U.S. Pat. No. 8,394,922 B2 (2013). The valine-citrulline (Val-Cit) dipeptide is a known substrate for cathepsin B.
compound,measurement,setting,value
CCCCOc1nc(N)c2nc(O)n(Cc3ccc(CN(CCCC)C(=O)OCc4ccc(NC(=O)[C@H](CCCNC(N)=O)NC(=O)[C@@H](NC(=O)[C@H](CCC(=O)O)NC(=O)CCCCCN5C(=O)C=CC5=O)C(C)C)cc4)cc3)c2n1 [Compound B],Stability in Human Serum (% cleaved after 24 hours),[1],0 % cleaved
same,Stability in Mouse Serum (% cleaved after 24 hours),"[2]; mouse serum, 37° C., 24 hours",50 % cleaved
same,Stability in mouse serum (in words),[2]; text summary of Table C,unstable in mouse serum
same,Cathepsin B Cleavage (% cleaved after 24 hours),Cathepsin B,100 % cleaved
